This note sets out measurements from EP4603105A1, “PHARMACEUTICAL COMPOSITION CONTAINING CYCLIC COMPOUND HAVING SELECTIVE KRAS INHIBITORY EFFECT AGAINST HRAS AND NRAS” (CHUGAI SEIYAKU KABUSHIKI KAISHA, priority 2022, dated 2024).

For test [1], the system named is human lung cancer strain NCI-H441. It counts as cell-based. Put shortly:
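Step one: dispense the test compound in serial DMSO dilutions. Step three: add the reagent and measure […].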

In the next test the target is HRAS wild-type protein (Homo sapiens, UniProt P01112). The test can be described thus: Binding to HRAS by surface plasmon resonance (SPR), KD and KD ratio to KRAS. The note with it: ratio of the KD value with respect to HRAS wild-type protein to the KD value with respect to KRAS. The method, boiled down:
(§1)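 Biotinylated GDP-bound RAS was captured at about 100–300 RU. Running buffer: HBS pH 7.4, 10 mM MgCl2, 10 µM GDP, 1 mM DTT, 0.01% Tween 20, 4% DMSO.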
On the technique in general: In SPR one partner is held on a chip, and binding of the other changes the refractive index at the surface.

Test [2] addresses GDP-bound NRAS wild-type protein (Homo sapiens, UniProt P01111). In words: Binding to NRAS by surface plasmon resonance (SPR), KD and KD ratio to KRAS. Particulars: ratio of the KD value with respect to GDP-bound NRAS wild-type protein to the KD value with respect to KRAS. Put shortly:
as §1

A word on the IC50: it is the concentration at which inhibition is half-maximal. The low end stands for higher potency, the high end for lower potency.

GDP-bound NRAS wild-type protein, sequence (P01111 whole entry): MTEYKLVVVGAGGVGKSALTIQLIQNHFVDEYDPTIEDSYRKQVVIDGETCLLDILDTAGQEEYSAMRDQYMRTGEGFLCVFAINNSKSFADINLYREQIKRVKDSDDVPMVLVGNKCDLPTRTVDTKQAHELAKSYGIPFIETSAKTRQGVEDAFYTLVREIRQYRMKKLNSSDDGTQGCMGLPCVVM
HRAS wild-type protein, sequence (P01112 whole entry): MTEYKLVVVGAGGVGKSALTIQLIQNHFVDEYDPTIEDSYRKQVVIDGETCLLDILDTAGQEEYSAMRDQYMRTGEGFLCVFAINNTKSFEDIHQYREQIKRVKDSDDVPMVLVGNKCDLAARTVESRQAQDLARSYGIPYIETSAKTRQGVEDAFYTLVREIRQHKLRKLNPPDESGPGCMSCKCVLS

`CCO[C@@H]1C[C@H]2C(=O)NC3(CC(C)(C)C3)C(=O)N(C)[C@@H](C(CC)CC)C(=O)N(C)[C@H](C(=O)N3CCCC3)CC(=O)N(C)[C@@H](COC)C(=O)N[C@@H]([C@@H](C)CC)C(=O)N(C)CC(=O)N(C)[C@H]3C/C=C\CCN(C3=O)[C@@H](Cc3ccc(C(F)(F)F)cc3)C(=O)N(C)CC(=O)N[C@@H](CCc3ccc(C(F)(F)F)c(Cl)c3)C(=O)N2C1` [PP2128] gave an IC50 in test [1] of 14.8 nM. The “HRAS /KRAS” value at HRAS wild-type protein was “A (a compound having 10 or more and less than 20 is denoted as A)”. In test [2], the “NRAS /KRAS” value is “AA (a compound having 20 or more is denoted as AA)”.

Consider `CCO[C@@H]1C[C@H]2C(=O)NC3(CC(C)(C)C3)C(=O)N(C)[C@@H](C(CC)CC)C(=O)N(C)[C@H](C(=O)N(C)C)CC(=O)N(C)[C@@H](CC(C)C)C(=O)N[C@@H]([C@@H](C)CC)C(=O)N(C)CC(=O)N(C)[C@H]3C/C=C\CCN(C3=O)[C@@H](Cc3ccc(C(F)(F)F)cc3)C(=O)N(C)CC(=O)N[C@@H](CCc3ccc(C(F)(F)F)c(Cl)c3)C(=O)N2C1` [PP2132], for which, in test [1], the IC50 was 18.4 nM. The “HRAS /KRAS” value at HRAS wild-type protein was “A (a compound having 10 or more and less than 20 is denoted as A)”. Moreover, the “NRAS /KRAS” value in test [2] is listed as “AA (a compound having 20 or more is denoted as AA)”.

As for `CCO[C@@H]1C[C@H]2C(=O)NC3(CC(C)(C)C3)C(=O)N(C)[C@@H](C(CC)CC)C(=O)N(C)[C@H](C(=O)N(C)C)CC(=O)N(C)[C@@H](CC3CCC3)C(=O)N[C@@H]([C@@H](C)CC)C(=O)N(C)CC(=O)N(C)[C@H]3C/C=C\CCN(C3=O)[C@@H](Cc3ccc(C(F)(F)F)cc3)C(=O)N(C)CC(=O)N[C@@H](CCc3cc(F)c(C(F)(F)F)c(F)c3)C(=O)N2C1` [PP2133], inhibition in test [1] was half-maximal at 16.2 nM (IC50). Besides, on HRAS wild-type protein, the “HRAS /KRAS” value is “A (a compound having 10 or more and less than 20 is denoted as A)”. For the same compound, in test [2], the “NRAS /KRAS” value is on record as “AA (a compound having 20 or more is denoted as AA)”.

On to `CCO[C@@H]1C[C@H]2C(=O)NC3(CC(C)(C)C3)C(=O)N(C)[C@@H](C(CC)CC)C(=O)N(C)[C@H](C(=O)N(C)C)CC(=O)N(C)[C@@H](C(C)C)C(=O)N[C@@H]([C@@H](C)CC)C(=O)N(C)CC(=O)N(C)[C@H]3C/C=C\CCN(C3=O)[C@@H](Cc3ccc(C(F)(F)F)cc3)C(=O)N(C)CC(=O)N[C@@H](CCc3cc(F)c(C(F)(F)F)c(F)c3)C(=O)N2C1` [PP2135], for which the 50% inhibitory concentration (IC50) in test [1] was determined as 15.7 nM. Moreover, the “HRAS /KRAS” value on HRAS wild-type protein was “A (a compound having 10 or more and less than 20 is denoted as A)”. Moreover, the “NRAS /KRAS” value in test [2] is recorded as “AA (a compound having 20 or more is denoted as AA)”.

`CCO[C@@H]1C[C@H]2C(=O)NC3(CC(C)(C)C3)C(=O)N(C)[C@@H](C(CC)CC)C(=O)N(C)[C@H](C(=O)N(C)C)CC(=O)N(C)[C@@H](CC3CC3)C(=O)N[C@@H]([C@@H](C)CC)C(=O)N(C)CC(=O)N(C)[C@H]3C/C=C\CCN(C3=O)[C@@H](Cc3ccc(C)cc3)C(=O)N(C)CC(=O)N[C@@H](CCc3cc(F)c(C(F)(F)F)c(F)c3)C(=O)N2C1` [PP2137] returned an IC50 in test [1] of 16.8 nM. The “HRAS /KRAS” value on HRAS wild-type protein was “A (a compound having 10 or more and less than 20 is denoted as A)”. For the same compound, the “NRAS /KRAS” value in test [2] was “A (a compound having 10 or more and less than 20 is denoted as A)”.

`CCO[C@@H]1C[C@H]2C(=O)NC3(CC(C)(C)C3)C(=O)N(C)[C@@H](C(CC)CC)C(=O)N(C)[C@H](C(=O)N(C)C)CC(=O)N(C)[C@@H](CC3CCC3)C(=O)N[C@@H]([C@@H](C)CC)C(=O)N(C)CC(=O)N(C)[C@H]3C/C=C\CCN(C3=O)[C@@H](Cc3ccc(C(F)(F)F)cc3)C(=O)N(C)CC(=O)N[C@@H](CCc3ccc(C(F)(F)F)c(Cl)c3)C(=O)N2C1` [PP2138] gave a 50% inhibitory concentration (IC50) in test [1] of 15.7 nM. The “HRAS /KRAS” value at HRAS wild-type protein was “A (a compound having 10 or more and less than 20 is denoted as A)”. The “NRAS /KRAS” value in test [2] was “A (a compound having 10 or more and less than 20 is denoted as A)”.

In test [1], `CCO[C@@H]1C[C@H]2C(=O)NC3(CC(C)(C)C3)C(=O)N(C)[C@@H](C(CC)CC)C(=O)N(C)[C@H](C(=O)N(C)C)CC(=O)N(C)[C@@H](C(C)C)C(=O)N[C@@H]([C@@H](C)CC)C(=O)N(C)CC(=O)N(C)[C@H]3C/C=C\CCN(C3=O)[C@@H](Cc3ccc(C(F)(F)F)cc3)C(=O)N(C)CC(=O)N[C@@H](CCc3ccc(C(F)(F)F)c(Cl)c3)C(=O)N2C1` [PP2140] yielded an IC50 of 24.7 nM. Further, the “HRAS /KRAS” value at HRAS wild-type protein is “A (a compound having 10 or more and less than 20 is denoted as A)”. In addition, the “NRAS /KRAS” value in test [2] is on record as “AA (a compound having 20 or more is denoted as AA)”.

On to `CCO[C@@H]1C[C@H]2C(=O)NC3(CC(C)(C)C3)C(=O)N(C)[C@@H](C(CC)CC)C(=O)N(C)[C@H](C(=O)N(C)C)CC(=O)N(C)[C@@H](C)C(=O)N[C@@H]([C@@H](C)CC)C(=O)N(C)CC(=O)N(C)[C@H]3C/C=C\CCN(C3=O)[C@@H](Cc3ccc(C)cc3)C(=O)N(C)CC(=O)N[C@@H](CCc3cc(F)c(C(F)(F)F)c(F)c3)C(=O)N2C1` [PP2143], for which the half-inhibitory concentration (IC50) in test [1] was 6.6 nM. Further, the “HRAS /KRAS” value at HRAS wild-type protein was “A (a compound having 10 or more and less than 20 is denoted as A)”. Also, in test [2], the “NRAS /KRAS” value was “A (a compound having 10 or more and less than 20 is denoted as A)”.

For `CCO[C@@H]1C[C@H]2C(=O)NC3(CC(C)(C)C3)C(=O)N(C)[C@@H](C(CC)CC)C(=O)N(C)[C@H](C(=O)N3CCCC3)CC(=O)N(C)[C@@H](COC)C(=O)N[C@@H]([C@@H](C)CC)C(=O)N(C)CC(=O)N(C)[C@H]3C/C=C\CCN(C3=O)[C@@H](Cc3ccc(C)cc3)C(=O)N(C)CC(=O)N[C@@H](CCc3ccc(C(F)(F)F)c(Cl)c3)C(=O)N2C1` [PP2144], the IC50 in test [1] turned out to be 29 nM. Also, the “HRAS /KRAS” value on HRAS wild-type protein was “A (a compound having 10 or more and less than 20 is denoted as A)”. Besides, the “NRAS /KRAS” value in test [2] was “AA (a compound having 20 or more is denoted as AA)”.

`CCO[C@@H]1C[C@H]2C(=O)NC3(CC(C)(C)C3)C(=O)N(C)[C@@H](C(CC)CC)C(=O)N(C)[C@H](C(=O)N3CCCC3)CC(=O)N(C)[C@@H](C)C(=O)N[C@@H]([C@@H](C)CC)C(=O)N(C)CC(=O)N(C)[C@H]3C/C=C\CCN(C3=O)[C@@H](Cc3ccc(C)cc3)C(=O)N(C)CC(=O)N[C@@H](CCc3cc(F)c(C(F)(F)F)c(F)c3)C(=O)N2C1` [PP2145] returned an IC50 in test [1] of 17.2 nM. Further, the “HRAS /KRAS” value on HRAS wild-type protein was “A (a compound having 10 or more and less than 20 is denoted as A)”. In test [2], the “NRAS /KRAS” value is “A (a compound having 10 or more and less than 20 is denoted as A)”.

For `CCC[C@H]1C(=O)N[C@@H]([C@@H](C)CC)C(=O)N(C)CC(=O)N(C)[C@H]2C/C=C\CCN(C2=O)[C@@H](Cc2ccc(C)cc2)C(=O)N(C)CC(=O)N[C@@H](CCc2ccc(C(F)(F)F)c(Cl)c2)C(=O)N2C[C@H](OCC)C[C@H]2C(=O)NC2(CC(C)(C)C2)C(=O)N(C)[C@@H](C(CC)CC)C(=O)N(C)[C@H](C(=O)N(C)C)CC(=O)N1C` [PP2146], 8.2 nM corresponded to half-maximal inhibition in test [1] (IC50). For the same compound, the “HRAS /KRAS” value at HRAS wild-type protein is “A (a compound having 10 or more and less than 20 is denoted as A)”. Further, in test [2], the “NRAS /KRAS” value is “A (a compound having 10 or more and less than 20 is denoted as A)”.

The compound `CCO[C@@H]1C[C@H]2C(=O)NC3(CC(C)(C)C3)C(=O)N(C)[C@@H](C(CC)CC)C(=O)N(C)[C@H](C(=O)N(C)C)CC(=O)N(C)[C@@H](CC)C(=O)N[C@@H]([C@@H](C)CC)C(=O)N(C)CC(=O)N(C)[C@H]3C/C=C\CCN(C3=O)[C@@H](Cc3ccc(C)cc3)C(=O)N(C)CC(=O)N[C@@H](CCc3cc(F)c(C(F)(F)F)c(F)c3)C(=O)N2C1` [PP2147] registered an IC50 in test [1] of 9.7 nM. Also, the “HRAS /KRAS” value on HRAS wild-type protein was “B (a compound having 3 or more and less than 10 is denoted as B)”. In test [2], the “NRAS /KRAS” value is “A (a compound having 10 or more and less than 20 is denoted as A)”.

Regarding `CCO[C@@H]1C[C@H]2C(=O)NC3(CC(C)(C)C3)C(=O)N(C)[C@@H](C(CC)CC)C(=O)N(C)[C@H](C(=O)N3CCCC3)CC(=O)N(C)[C@@H](CC)C(=O)N[C@@H]([C@@H](C)CC)C(=O)N(C)CC(=O)N(C)[C@H]3C/C=C\CCN(C3=O)[C@@H](Cc3ccc(C)cc3)C(=O)N(C)CC(=O)N[C@@H](CCc3cc(F)c(C(F)(F)F)c(F)c3)C(=O)N2C1` [PP2149], the half-inhibitory concentration (IC50) in test [1] was 17.7 nM. Also, the “HRAS /KRAS” value at HRAS wild-type protein was “A (a compound having 10 or more and less than 20 is denoted as A)”. In addition, the “NRAS /KRAS” value in test [2] is “A (a compound having 10 or more and less than 20 is denoted as A)”.

Turning to `CCO[C@@H]1C[C@H]2C(=O)NC3(CC(C)(C)C3)C(=O)N(C)[C@@H](C(CC)CC)C(=O)N(C)[C@H](C(=O)N(C)C)CC(=O)N(C)[C@@H](C)C(=O)N[C@@H]([C@@H](C)CC)C(=O)N(C)CC(=O)N(C)[C@H]3C/C=C\CCN(C3=O)[C@@H](Cc3ccc(C)cc3)C(=O)N(C)CC(=O)N[C@@H](CCc3ccc(C(F)(F)F)c(Cl)c3)C(=O)N2C1` [PP2150], in test [1], half-maximal inhibition (IC50) required 58 nM. On HRAS wild-type protein, the “HRAS /KRAS” value is “A (a compound having 10 or more and less than 20 is denoted as A)”. Besides, the “NRAS /KRAS” value in test [2] is listed as “AA (a compound having 20 or more is denoted as AA)”.

Consider `CCO[C@@H]1C[C@H]2C(=O)NC3(CC(C)(C)C3)C(=O)N(C)[C@@H](C(CC)CC)C(=O)N(C)[C@H](C(=O)N(C)C)CC(=O)N(C)[C@@H](CC3CCC3)C(=O)N[C@@H]([C@@H](C)CC)C(=O)N(C)CC(=O)N(C)[C@H]3C/C=C\CCN(C3=O)[C@@H](Cc3ccc(C)cc3)C(=O)N(C)CC(=O)N[C@@H](CCc3cc(F)c(C(F)(F)F)c(F)c3)C(=O)N2C1` [PP2151], for which half-maximal inhibition in test [1] (IC50) required 23.3 nM. In addition, the “HRAS /KRAS” value at HRAS wild-type protein is “A (a compound having 10 or more and less than 20 is denoted as A)”. In test [2], the “NRAS /KRAS” value was “A (a compound having 10 or more and less than 20 is denoted as A)”.
